Reference: PubChem BioAssay AID624076 (Broad Institute, 2012)
Activity calls are given as the source filed them. The rule behind the calls is not given here.

Assay: PubChem AID 624076
Details: Carna kinase panel, IMAP FP / mobility shift, at 10 µM, hits give high values

With `COc1ccccc1[C@@H]1C2=C(CC(C)(C)CC2=O)Nc2n[nH]c(C(F)(F)F)c21` the inhibition (ABL(E255K)) was -4.01% (inactive), the inhibition (ABL(T315I)) was 0.608% (inactive) and the inhibition (AKT2) was 0.755% (inactive). For the same compound, the inhibition (AKT3) was 0.416% (inactive), the inhibition (ALK(L1196M)) was 2.33% (inactive) and the inhibition (ALK(R1275Q)) was 2.67% (inactive). For the same compound, the inhibition (ARG) was -1.1% (inactive), the inhibition (AXL) was 4.36% (inactive) and the inhibition (AurB) was 6.59% (inactive). The inhibition (AurC) was 6.9% (inactive), the inhibition (BRAF, cascade assay) was 10.8% (inactive) and the inhibition (BRK) was -0.572% (inactive). For the same compound, the inhibition (BRSK1) was 4.37% (inactive), the inhibition (BTK) was -2.3% (inactive) and the inhibition (CDK9/CycT1) was 20.5% (inactive). The inhibition (CHK2) was 6.76% (inactive), the inhibition (CK1e) was 0.145% (inactive) and the inhibition (CK1g1) was 0.48% (inactive). The inhibition (CK1g2) was 2.84% (inactive), the inhibition (CK2a2/b) was -4.08% (inactive) and the inhibition (CK1d) was -0.463% (inactive). For the same compound, the inhibition (CLK1) was 15.1% (inactive), the inhibition (CLK2) was 22.8% (inactive) and the inhibition (CLK3) was 5.11% (inactive). For the same compound, the inhibition (CRIK) was 0.502% (inactive), the inhibition (CaMK2b) was 2.08% (inactive) and the inhibition (CaMK4) was 2.19% (inactive). The inhibition (CaMK1d) was 0.058% (inactive), the inhibition (DAPK1) was 1.44% (inactive) and the inhibition (DCAMKL2) was 3.11% (inactive). For the same compound, the inhibition (DLK, cascade assay) was -3.03% (inactive), the inhibition (DYRK1A) was 13.9% (inactive) and the inhibition (DYRK1B) was 52.5%. The inhibition (DYRK2) was -4.58% (inactive), the inhibition (EGFR(L861Q)) was -0.865% (inactive) and the inhibition (EML4-ALK) was 1.03% (inactive). The inhibition (EPHA3) was -0.86% (inactive), the inhibition (EPHA5) was -0.402% (inactive) and the inhibition (EPHA8) was -3.88% (inactive). For the same compound, the inhibition (EPHB1) was 3.24% (inactive), the inhibition (EPHB4) was 2.47% (inactive) and the inhibition (FGFR1) was 4.17% (inactive). For the same compound, the inhibition (FGFR3(K650E)) was 2.8% (inactive), the inhibition (FGFR3(K650M)) was 1.1e-14% (inactive) and the inhibition (FGFR4(N535K)) was 0.356% (inactive). The inhibition (FGFR4(V550L)) was 4.09% (inactive), the inhibition (FGFR4) was 5.54% (inactive) and the inhibition (FLT4) was 9% (inactive). For the same compound, the inhibition (FMS) was -0.377% (inactive), the inhibition (GSK3a) was 101% and the inhibition (HER4) was -0.972% (inactive). The inhibition (HIPK1) was 8.84% (inactive), the inhibition (HIPK3) was 3.54% (inactive) and the inhibition (HIPK4) was 7.81% (inactive). The inhibition (Haspin) was -1.27% (inactive), the inhibition (IGF1R) was -2.57% (inactive) and the inhibition (IKKb) was -2.12% (inactive). The inhibition (IRAK4) was -2.34% (inactive), the inhibition (IRR) was -1.56% (inactive) and the inhibition (JAK2) was -0.539% (inactive). The inhibition (JAK3) was 8.04% (inactive), the inhibition (JNK1) was -1.99% (inactive) and the inhibition (JNK2) was 3.84% (inactive). For the same compound, the inhibition (JNK3) was 2.16% (inactive), the inhibition (KIT(T670I)) was 8.36% (inactive) and the inhibition (KIT(V560G)) was 3.59% (inactive). The inhibition (KIT) was 6.69% (inactive), the inhibition (LATS2) was 3.09% (inactive) and the inhibition (LOK) was 8.66% (inactive). The inhibition (LTK) was 11.1% (inactive), the inhibition (LYNa) was 15.1% (inactive) and the inhibition (MAP2K3, cascade assay) was 6.17% (inactive). The inhibition (MAP2K4, cascade assay) was 0.115% (inactive), the inhibition (MAP3K4, cascade assay) was 7.41% (inactive) and the inhibition (MAP3K5, cascade assay) was 14.4% (inactive). For the same compound, the inhibition (MAP4K2) was 7.36% (inactive), the inhibition (MARK2) was 39.1% (inactive) and the inhibition (MARK4) was 48.6% (inactive). For the same compound, the inhibition (MELK) was 7.87% (inactive), the inhibition (MER) was 8.36% (inactive) and the inhibition (MGC42105) was 0.183% (inactive). For the same compound, the inhibition (MINK) was -2.54% (inactive), the inhibition (MLK1, cascade assay) was 17.6% (inactive) and the inhibition (MLK2, cascade assay) was 4.73% (inactive). For the same compound, the inhibition (MLK3, cascade assay) was 1.88% (inactive), the inhibition (MSK1) was 3.83% (inactive) and the inhibition (MST2) was -3.85% (inactive). For the same compound, the inhibition (MST4) was -1.67% (inactive), the inhibition (NDR1) was -0.193% (inactive) and the inhibition (NEK1) was 0.375% (inactive). For the same compound, the inhibition (NEK2) was 0.761% (inactive), the inhibition (NEK6) was 3.82% (inactive) and the inhibition (NEK7) was -4.5% (inactive). For the same compound, the inhibition (PAK3) was 33.4% (inactive), the inhibition (PAK4) was 17.6% (inactive) and the inhibition (PAK5) was 14.9% (inactive). The inhibition (PASK) was 3.87% (inactive), the inhibition (PBK) was 0.885% (inactive) and the inhibition (PDGFRa(V561D)) was 2.12% (inactive). The inhibition (PEK) was -3.83% (inactive), the inhibition (PGK) was 0.119% (inactive) and the inhibition (PHKG1) was 5.52% (inactive). The inhibition (PIK3CA/PIK3R1) was -2.01% (inactive), the inhibition (PIM2) was 0.406% (inactive) and the inhibition (PIM3) was 8.57% (inactive). For the same compound, the inhibition (PKACg) was 1.21% (inactive), the inhibition (PKCa) was 4.41% (inactive) and the inhibition (PKCb2) was 9.38% (inactive). The inhibition (PKCd) was 8.65% (inactive), the inhibition (PKCg) was 5.54% (inactive) and the inhibition (PKD1) was -0.973% (inactive). For the same compound, the inhibition (PKD2) was 0.969% (inactive), the inhibition (PKD3) was 5.41% (inactive) and the inhibition (PKN1) was 23.4% (inactive). For the same compound, the inhibition (PLK1) was 0.912% (inactive), the inhibition (PRKX) was -1.49% (inactive) and the inhibition (RET(S891A)) was 16.1% (inactive). The inhibition (RET(Y791F)) was 2.31% (inactive), the inhibition (ROCK1) was 6.72% (inactive) and the inhibition (ROCK2) was 2.67% (inactive). For the same compound, the inhibition (ROS) was 82.7%, the inhibition (RSK1) was 8.92% (inactive) and the inhibition (RSK2) was 10.7% (inactive). The inhibition (RSK4) was 10.3% (inactive), the inhibition (SGK3) was 0.498% (inactive) and the inhibition (SIK) was 3.03% (inactive). For the same compound, the inhibition (SLK) was 10.4% (inactive), the inhibition (SRC) was 4% (inactive) and the inhibition (SRM) was -2.09% (inactive). The inhibition (SRPK1) was 13.7% (inactive), the inhibition (SYK) was -0.473% (inactive) and the inhibition (TAK1-TAB1, cascade assay) was 3.32% (inactive). The inhibition (TIE2) was 4.15% (inactive), the inhibition (TNK1) was 3.87% (inactive) and the inhibition (TRKA) was 54.8%. The inhibition (TSSK3) was 0% (inactive), the inhibition (TYK2) was -1.6% (inactive) and the inhibition (WNK2) was -0.427% (inactive). The inhibition (p38a) was 1.28% (inactive) and the inhibition (p38d) was 15.7% (inactive).
